{
  "source": "patent US8377976B2",
  "about": "“N-hydroxyamidinoheterocycles as modulators of indoleamine 2,3-dioxygenase” (Incyte Corporation, priority 2006, dated 2013)",
  "origin": "cited, not measured here",
  "key": {"[1]": {"tested_on": "peripheral blood lymphocytes (PBLs)", "conditions": "HeLa cells co-cultured with PBLs"}, "allogeneic concepti": {"tested_on": "allogeneic concepti", "conditions": "pregnant mice exposed to 1MT"}, "tumor growth": {"tested_on": "tumor growth", "conditions": "mice"}, "[2]": {"tested_on": "CD123-positive dendritic cells", "conditions": "mature and immature CD123-positive dendritic cells"}, "LLC tumors": {"tested_on": "LLC tumors", "conditions": "C57B1/6 mice, versus placebo"}, "P815 tumor": {"tested_on": "P815 tumor", "conditions": "pre-immunized immune-competent mice"}},
  "data": [
    {"compound": "Cn1cc(C[C@H](N)C(=O)O)c2ccccc21", "note": "[Example 1-MT, 1-methyl-tryptophan]", "values": [
      {"measurement": "reduction in PBL proliferation upon treatment with interleukin-2 (IL2)", "setting": "[1]", "value": "reversed"},
      {"measurement": "rejection of concepti", "setting": "allogeneic concepti", "value": "rapid, T cell-induced rejection of all allogeneic concepti"},
      {"measurement": "tumor growth in combination with chemotherapeutic agents", "setting": "tumor growth", "value": "synergize with chemotherapeutic agents to reduce tumor growth"},
      {"measurement": "IDO suppressive activity on T-cell activity", "setting": "[2]", "value": "blocked"},
      {"measurement": "formation of tumors", "setting": "LLC tumors", "value": "markedly delayed"},
      {"measurement": "growth of tumors", "setting": "P815 tumor", "value": "inhibited"}
    ]}
  ]
}
